We go through 21 compounds from patent US11033569B2, “Compounds,Compositions, and methods for the treatment of disease” (Sperovie Biosciences, Inc., priority 2016, dated 2021).

Each structure is given as a SMILES string. “Also recorded” adds a separate entry of the source. Like-named read-outs stand apart in the source and are kept apart here.

The test system of one test is A20 lymphoma. Nature of the test: Syngeneic A20 lymphoma mouse model. It counts as in vivo. Conditions: monotherapy; for tumor growth: compared with vehicle.
The subject of the next test is ISG54 ISRE-luc reporter. Nature of the test: ISG54 ISRE-luc reporter activation in HEK293 (SZ14) cells, screen for STING agonists. The format is cell-based. Conditions: digitonin buffer, 5 hours, read-out: IRF EC50. As to the method:
(§1) ISG54 or NF-κβ activity was determined using the Steady-glo buffer system (Promega), and are expressed as EC50 values summarized in Table 3 below. […] This calculation is applicable for compounds with enzyme inhibition activity, as the baseline for an untreated sample may be set at 100% enzymatic activity, and therefore % inhibition is evaluated based on this 100% maximal basis. For these studies, the EC50 value relates to the concentration required to achieve a value 50% activity level above the untreated sample set at 0%.
(§2) Data are shown as fold induction over cells that received DMSO (compound carrier) alone as the mean, +/−standard deviation of duplicate wells per stimulant.

The next test relates to NF-κβ-luc reporter. Nature of the test: NF-κβ-luc reporter activation in HEK293 (SZ14) cells, screen for STING agonists. The format is cell-based. Particulars: digitonin buffer, 5 hours, read-out: NF-KB EC50. The procedure: as §1, §2
Another test has as its system THP1 cells and PBMCs. Nature of the test: Gene expression of ISGs and PRRs in THP1 and PBMCs (real time PCR). It counts as cell-based. Particulars: 5 uM, Lipofectamine LTX, 20 h. The procedure: (§3) After incubation for 20 h, RNA was extracted and gene expression of different Interferon Stimulated Genes (ISGs) and various Pattern Recognition Receptors (PRRs) was evaluated by real time PCR. Fold Induction was calculated by ΔΔct method.
as §3
(Real-time PCR tracks product formation cycle by cycle.)

Another test relates to mouse macrophages. Nature of the test: Type I IFN signaling in mouse macrophages. The format is cell-based. Particulars: mouse macrophages (FIG. 36B). The procedure: Activity of secreted luciferase in cell culture supernatant was measured using Invivogen Quanti-luc. Data are shown as fold induction over DMSO treated cells (mean±standard deviation of triplicate wells per stimulant).

For another test, the system named is human monocytes. Nature of the test: Activity in human monocytes. It counts as cell-based. Particulars: human monocytes (FIG. 36A).
Another test deals with THP1 cells. Nature of the test: Type III IFN (IL-29) production in THP1 cells (ELISA). It counts as cell-based. Conditions: 21 hrs. As to the method:
Level of IL-29 in culture supernatant was determined using ELISA. Results shown are the average±standard deviation of duplicate wells.
On the technique in general: An ELISA detects its analyte on a solid surface through an enzyme-linked reagent.

In a further test the test system is CT26 colon cancer. Nature of the test: Syngeneic CT26 colon cancer mouse model. It counts as in vivo. Particulars: intratumoral administration.
Where [1] appears, read: vs vehicle, vehicle and Ethanol (FIG. 80).

One may read the EC50 as the concentration needed to bring the measured effect to its halfway point. In the case of `CCCCCCCCCCOc1ccc(C(=O)Oc2ccc(CS[P@]3(=O)OC[C@H]4O[C@@H](n5cnc6c(N)ncnc65)[C@H](F)[C@@H]4OP(=O)(O)OC[C@H]4O[C@@H](n5ccc(=O)[nH]c5=O)[C@H](F)[C@@H]4O3)cc2)cc1.N` (single isomer, unassigned) [Cmd 1A], in the test with A20 lymphoma, the survival rate result is given as “significantly improve the survival rate” and the tumor growth result was “inhibit mouse A20 B cell lymphoma tumor cells”. For the same compound, the concentration for a half-maximal effect (EC50) with ISG54 ISRE-luc reporter is under 50 nM. Also, the EC50 with NF-κβ-luc reporter lay in the range of 50 to 500 nM.
As for `CCCCCCCCCCOc1ccc(C(=O)Oc2ccc(CS[P@@]3(=O)OC[C@H]4O[C@@H](n5cnc6c(N)ncnc65)[C@H](F)[C@@H]4OP(=O)(O)OC[C@H]4O[C@@H](n5ccc(=O)[nH]c5=O)[C@H](F)[C@@H]4O3)cc2)cc1` (single isomer, unassigned) [Cmd 1B], the EC50 in the test on ISG54 ISRE-luc reporter was under 50 nM; in the test with NF-κβ-luc reporter, 50 to 500 nM.
`Nc1ncnc2c1ncn2[C@@H]1O[C@@H]2COP(=O)(S)O[C@H]3[C@@H](F)[C@H](n4ccc(=O)[nH]c4=O)O[C@@H]3COP(=O)(S)O[C@H]2[C@H]1F` (some centres unmarked) [Cmd 2]: the EC50 in the test with ISG54 ISRE-luc reporter (Homo sapiens) is 1000 to 2000 nM; in the test on NF-κβ-luc reporter (Homo sapiens), over 2000 nM.
In the case of `CCCCCCCCCCOc1ccc(C(=O)Oc2ccc(CSP3(=O)OC[C@H]4O[C@@H](n5cnc6c(N)ncnc65)[C@H](F)[C@@H]4OP(=O)(SCc4ccc(OC(=O)c5ccc(OCCCCCCCCCC)cc5)cc4)OC[C@H]4O[C@@H](n5ccc(=O)[nH]c5=O)[C@H](F)[C@@H]4O3)cc2)cc1` (some centres unmarked) [Cmd 4], the “induction of ISG and PRR-associated genes, THP1 compared to PBMCs” value with THP1 cells and PBMCs is given as “Enhanced Activity”. Also, the values for the concentration giving a half-maximal response (EC50) in the test with ISG54 ISRE-luc reporter and in the test with NF-κβ-luc reporter were 1000 to 2000 nM and over 2000 nM, respectively.
For the compound `CC(C)OC(=O)OCSP1(=O)OC[C@H]2O[C@@H](n3cnc4c(N)ncnc43)[C@H](F)[C@@H]2OP(=O)(O)OC[C@H]2O[C@@H](n3ccc(=O)[nH]c3=O)[C@H](F)[C@@H]2O1.N` (some centres unmarked) [Cmd 5], the “activity relative to natural STING ligand 3′,3′-cGAMP” value in the test on mouse macrophages and in the test on human monocytes was “more active” in each case. Besides, the 50% effective concentration (EC50) in the test with ISG54 ISRE-luc reporter and in the test with NF-κβ-luc reporter was over 2000 nM throughout.
Consider `CCCCCCCCOc1ccc(C(=O)Oc2ccc(CSP3(=O)OC[C@H]4O[C@@H](n5cnc6c(N)ncnc65)[C@H](F)[C@@H]4OP(=O)(O)OC[C@H]4O[C@@H](n5ccc(=O)[nH]c5=O)[C@H](F)[C@@H]4O3)cc2)cc1.N` (some centres unmarked) [Cmd 12], for which the “activity relative to natural STING ligand 3′,3′-cGAMP” value in the test on mouse macrophages and with human monocytes was “more active” each time. Further, the EC50 in the test on ISG54 ISRE-luc reporter and in the test on NF-κβ-luc reporter was under 50 nM each time.
As to `CCCCCCCCCCCC(=O)Oc1ccc(CSP2(=O)OC[C@H]3O[C@@H](n4cnc5c(N)ncnc54)[C@H](F)[C@@H]3OP(=O)(O)OC[C@H]3O[C@@H](n4ccc(=O)[nH]c4=O)[C@H](F)[C@@H]3O2)cc1.N` (some centres unmarked) [Cmd 13], the “activity relative to natural STING ligand 3′,3′-cGAMP” value in the test on mouse macrophages and in the test with human monocytes was “more active” in each case. Besides, the half-maximal effective concentration (EC50) with ISG54 ISRE-luc reporter was under 50 nM; in the test with NF-κβ-luc reporter, 50 to 500 nM.
Consider `CCCCCCOc1ccc(C(=O)Oc2ccc(CSP3(=O)OC[C@H]4O[C@@H](n5cnc6c(N)ncnc65)[C@H](F)[C@@H]4OP(=O)(O)OC[C@H]4O[C@@H](n5ccc(=O)[nH]c5=O)[C@H](F)[C@@H]4O3)cc2)cc1.N` (some centres unmarked) [Cmd 14], for which the “activity relative to natural STING ligand 3′,3′-cGAMP” value with mouse macrophages and with human monocytes was “more active” in each case. Besides, the EC50 in the test on ISG54 ISRE-luc reporter and in the test with NF-κβ-luc reporter was under 50 nM each time.
Turning to `CCCCCCCCCCCCOc1ccc(C(=O)Oc2ccc(CSP3(=O)OC[C@H]4O[C@@H](n5cnc6c(N)ncnc65)[C@H](F)[C@@H]4OP(=O)(O)OC[C@H]4O[C@@H](n5ccc(=O)[nH]c5=O)[C@H](F)[C@@H]4O3)cc2)cc1.N` (some centres unmarked) [Cmd 15], the “activity relative to natural STING ligand 3′,3′-cGAMP” value with mouse macrophages and in the test with human monocytes was “more active” each time. Moreover, the “type III interferon (IL-29) production” value in the test on THP1 cells is recorded as “induce type III interferon (IL-29) production”. Also, the EC50 in the test on ISG54 ISRE-luc reporter and in the test with NF-κβ-luc reporter was under 50 nM each time.
`CO[C@@H]1[C@@H]2OP(=O)(S)OC[C@H]3O[C@@H](n4cnc5c(N)ncnc54)C[C@@H]3OP(=O)(S)OC[C@H]2O[C@H]1n1ccc(=O)[nH]c1=O` (some centres unmarked) [Cmd 17]: the EC50 with ISG54 ISRE-luc reporter (Homo sapiens) and in the test on NF-κβ-luc reporter (Homo sapiens) was over 2000 nM each time.
For the compound `Nc1nc2c(ncn2[C@@H]2O[C@@H]3COP(=O)(S)O[C@H]4[C@@H](O)[C@H](n5cnc6c(=O)[nH]c(N)nc65)O[C@@H]4COP(=O)(S)O[C@H]3[C@H]2O)c(=O)[nH]1` (some centres unmarked) [Cmd 18], the 50% effective concentration (EC50) in the test on ISG54 ISRE-luc reporter (Homo sapiens) and in the test with NF-κβ-luc reporter (Homo sapiens) was over 2000 nM each time.
Take `CCCCCCCCCCOc1ccc(C(=O)Oc2ccc(CSP3(=O)OC[C@H]4O[C@@H](n5cnc6c(N)ncnc65)C[C@@H]4OP(=O)(SCc4ccc(OC(=O)c5ccc(OCCCCCCCCCC)cc5)cc4)OC[C@H]4O[C@@H](n5ccc(=O)[nH]c5=O)[C@H](OC)[C@@H]4O3)cc2)cc1` (some centres unmarked) [Cmd 20]: the concentration for a half-maximal effect (EC50) with ISG54 ISRE-luc reporter and in the test on NF-κβ-luc reporter was over 2000 nM each time.
In the case of `N.N.Nc1ncnc2c1ncn2[C@@H]1O[C@@H]2COP(=O)(S)O[C@H]3[C@@H](F)[C@H](n4ccc(=O)[nH]c4=O)O[C@@H]3COP(=O)(O)O[C@H]2[C@H]1F` (some centres unmarked) [Cmd 21], in the test on A20 lymphoma, the survival rate result was “significantly improve the survival rate”. Moreover, the tumor growth result in the test on A20 lymphoma was “considerable tumor growth inhibition; also recorded: inhibit mouse A20 B cell lymphoma tumor cells”; in the test with CT26 colon cancer (vs vehicle (FIG. 79)) it was “considerable tumor growth inhibition”; in the test with CT26 colon cancer (setting [1]) it was “considerable tumor growth inhibition”. The EC50 is 500 to 1000 nM with ISG54 ISRE-luc reporter (Homo sapiens) and over 2000 nM in the test on NF-κβ-luc reporter (Homo sapiens).
Regarding `CCCCCCCCCCCCOc1ccc(C(=O)Oc2ccc(CS[P@@]3(=O)OC[C@H]4O[C@@H](n5cnc6c(N)ncnc65)[C@H](F)[C@@H]4OP(=O)(O)OC[C@H]4O[C@@H](n5ccc(=O)[nH]c5=O)[C@H](F)[C@@H]4O3)cc2)cc1` [Cmd 22], the 50% effective concentration (EC50) with ISG54 ISRE-luc reporter is under 50 nM; with NF-κβ-luc reporter it was 50 to 500 nM.
Taken in the same sequence, the figures for `CCCCCCCCCCCCOc1ccc(C(=O)Oc2ccc(CS[P@]3(=O)OC[C@H]4O[C@@H](n5cnc6c(N)ncnc65)[C@H](F)[C@@H]4OP(=O)(O)OC[C@H]4O[C@@H](n5ccc(=O)[nH]c5=O)[C@H](F)[C@@H]4O3)cc2)cc1` [Cmd 23] were under 50 nM and 50 to 500 nM.
Turning to `CCCCCCCCCCOc1ccc(C(=O)Oc2ccc(CSP3(=O)OC[C@H]4O[C@@H](n5cnc6c(N)ncnc65)[C@H](F)[C@@H]4OP(=O)(O)OC[C@H]4O[C@@H](n5ccc(=O)[nH]c5=O)[C@H](F)[C@@H]4O3)cc2)c(C)c1` (some centres unmarked) [Cmd 25], the concentration giving a half-maximal response (EC50) with ISG54 ISRE-luc reporter is under 50 nM; with NF-κβ-luc reporter, 50 to 500 nM. The tumor growth result in the test with CT26 colon cancer (vs vehicle (FIG. 79)) and with CT26 colon cancer (setting [1]) was “considerable tumor growth inhibition” each time.
For the compound `CCCCCCCCCCOC(=O)Oc1ccc(CSP2(=O)OC[C@H]3O[C@@H](n4cnc5c(N)ncnc54)[C@H](F)[C@@H]3OP(=O)(O)OC[C@H]3O[C@@H](n4ccc(=O)[nH]c4=O)[C@H](F)[C@@H]3O2)cc1` (some centres unmarked) [Cmd 26], the EC50 in the test with ISG54 ISRE-luc reporter and in the test on NF-κβ-luc reporter was under 50 nM in each case.
For `CCCCCCCCCCOc1ccc(Oc2ccc(CSP3(=O)OC[C@H]4O[C@@H](n5cnc6c(N)ncnc65)[C@H](F)[C@@H]4OP(=O)(O)OC[C@H]4O[C@@H](n5ccc(=O)[nH]c5=O)[C@H](F)[C@@H]4O3)cc2)cc1` (some centres unmarked) [Cmd 29], the EC50 in the test on ISG54 ISRE-luc reporter fell in the range of 50 to 500 nM; in the test with NF-κβ-luc reporter, 500 to 1000 nM.
In the same order, the values of `CCCCCCCCCCOc1ccc(C(=O)Nc2ccc(CSP3(=O)OC[C@H]4O[C@@H](n5cnc6c(N)ncnc65)[C@H](F)[C@@H]4OP(=O)(O)OC[C@H]4O[C@@H](n5ccc(=O)[nH]c5=O)[C@H](F)[C@@H]4O3)cc2)cc1` (some centres unmarked) [Cmd 30] are 500 to 1000 nM and over 2000 nM.
In the same order, the values of `CCCCCCCCCCOc1ccc(C(=O)NCc2ccc(CSP3(=O)OC[C@H]4O[C@@H](n5cnc6c(N)ncnc65)[C@H](F)[C@@H]4OP(=O)(O)OC[C@H]4O[C@@H](n5ccc(=O)[nH]c5=O)[C@H](F)[C@@H]4O3)cc2)cc1` (some centres unmarked) [Cmd 31] are 500 to 1000 nM and over 2000 nM.
In the same order, the values of `CCCCCCCCCCNC(=O)Oc1ccc(CSP2(=O)OC[C@H]3O[C@@H](n4cnc5c(N)ncnc54)[C@H](F)[C@@H]3OP(=O)(O)OC[C@H]3O[C@@H](n4ccc(=O)[nH]c4=O)[C@H](F)[C@@H]3O2)cc1` (some centres unmarked) [Cmd 32] are 50 to 500 nM and 50 to 500 nM.
